Data from patent US8420100B2, “Tumor suppressor activating polypeptides and uses thereof” (Department of Biotechnology, priority 2006, dated 2013).

Tests used:
[1] = tested on: p53-driven p21 promoter in HEK 293 (p53+/+) cells; assay: p21 luciferase reporter assay in HEK 293 (p53+/+) cells; type: cell-based; conditions: 10 μM peptide, 12 h
Procedure: TAT-SMAR1 WT peptide (P44) modulates p53 function: To examine whether P44 peptide could alone activate p53^−, luciferase reporter assays were performed following treatment of cells with the chimeric TAT-SMAR1 derived peptides. HEK 293 (p53^+/+) cells were transfected with p21 expression plasmid having luciferase reporter gene and K562 (p53^−/−) cells were co-transfected with p21 luciferase reporter and p53 constructs. […] (FIG. 2A, bar 3) and about 1.5 fold activation in p53^−/− cell line (FIG. 2B, bar 4).
FIG. 2. P44 peptide activates the p53-driven p21 gene expression in reporter assays. p21 promoter activity was checked in both HEK 293 (p53^+/+) (A) and K562 (P53^−/−) cells (B). Cells were transfected with either pG13 […] reporter plasmid, a p53-driven p21 promoter, in HEK 293 cells or cotransfected with wild-type (wt) p53 in K562 cells. After 24 h post-transfection, cells were treated for 12 h with 10 μM concentration of various TAT-SMAR1 chimeric peptides. Y axis represents the fold luciferase activity (mean±SD of three independent experiments).
Luciferase reporter assay: HEK 293 (p53^+/+) and K562 (p53^−/−) cells were grown in DMEM supplemented with 10% FBS in the presence of 5% CO2 at 37° C., a total number of 1×10^6, cells were plated on a 6-well plate. After 24 h, cells were transiently transfected using lipofectamine-2000 with either 1 μg of p21 expression plasmid having luciferase reporter gene or 5 μg p21 luciferase along with wt p53 construct in K562 cell line. Two micrograms of pRL-CMV (Renilla luciferase reporter plasmid) was included in all transfections to normalize the transfection efficiency. Thirty six hours post-transfection, cells were treated with 10 μM of either P44 peptide or its various mutants. The cells were harvested 12 h post-treatment, washed with PBS and lysed in 1× Passive lysis buffer (Promega). After three freeze-thaw cycles, cells were spun at 10,000 rpm at 4° C. for 20 min. The supernatants were collected and protein concentrations were estimated spectrophotometrically using Bradford reagent as (BioRad, CA). According to the manufacturer's instructions, luciferase activity was assessed using the dual luciferase assay reporter kit (Promega). The luciferase activity was measured by using Fluoroskan Ascent Luminometer (Labsystems). For all the luciferase assays, the data shown are the mean+SD of three independent experiments.

p53 = target: T1, p53 (Homo sapiens, UniProt P04637); assay: Indirect immunofluorescence of p53 in peptide-treated HEK 293 cells (confocal imaging); type: cell-based; conditions: HEK 293, 10 μM peptide, 12 h
T1 construct: HEK 293 (p53^+/+) cells; endogenous in cells; host or cells: HEK 293
Procedure: HEK 293 cells were treated with 10 μM of various TAT-SMAR1 derived peptides.
FIG. 4. Serine 347 residue of SMAR1 mediates p53 activation and stabilization. A, HEK 293 cells were cultured at a density of 5×10^5 cells and 24 h later treated with 10 μM concentration of either the P44 or various serine-mutant peptides (PS347A, PS348A, PS349A, PS350A and RS mutant; SM). After 12 h of treatment, protein lysates were prepared and immunoblotted using pSer-15 p53 and pcdc-2 antibodies. Actin was used as the loading control. B, Peptides P44 (panel B), PS347A (panel C), PS348A (panel D), PS349A (panel E), PS350A (panel F) and SM (panel G) were incubated at a final concentration of 10 μM with HEK 293 cells for 12 h before indirect immunofluorescence detection with a primary antibody against p53 protein and a secondary fluorescein-conjugated anti-mouse IgG.
Immunocytochemistry and confocal imaging: For direct detection of TRITC-labeled peptides, HEK 293 cells were plated directly on a glass coverslip and cultured overnight prior to their treatment to TRITC-conjugated various TAT-SMAR1 derived peptides. After 12 h incubation, three washings with cold PBS were given and the cells fixed with 3.7% paraformaldehyde before being mounted in PBS/Glycerol (1:1) containing antifading agent. For indirect immunodetection, 2×10^5 HEK 293 cells were plated and cultured overnight in 35 mm plates on glass coverslips. The cell monolayer was then treated with either of the various TAT SMAR1 derived peptides, dissolved directly in complete DMEM medium at the appropriate concentration (final concentration 10 μM). After 12 h incubation, cells were washed twice with cold PBS and fixed with 3.7% paraformaldehyde. Subsequently, fixed cells were stained for total p53 using anti-p53 (DO-1) (SantaCruz) for an hour at room temperature.
For detection, cells were incubated with a secondary-antibody mix containing FITC-conjugated anti-mouse IgG antibodies (Sigma) for 1 h at RT. Slides were then mounted in antifade mounting medium (Dako) and analyzed with a confocal laser scanning microscope (CLSM 510, version 2.01; Zeiss, Thornwood, N.Y.).

[2] = tested on: protein kinase C (PKC) family of proteins; assay: In vitro phosphorylation (kinase) assay with HEK 293 whole cell extract; type: biochemical; conditions: for phosphorylation of peptide by extract of staurosporine-treated cells: extract from 293 cells treated with 20 nM staurosporine (PKC inhibitor); for phosphorylation of peptide by whole cell extract: extract from untreated 293 cells

T1 sequence (P04637 whole entry): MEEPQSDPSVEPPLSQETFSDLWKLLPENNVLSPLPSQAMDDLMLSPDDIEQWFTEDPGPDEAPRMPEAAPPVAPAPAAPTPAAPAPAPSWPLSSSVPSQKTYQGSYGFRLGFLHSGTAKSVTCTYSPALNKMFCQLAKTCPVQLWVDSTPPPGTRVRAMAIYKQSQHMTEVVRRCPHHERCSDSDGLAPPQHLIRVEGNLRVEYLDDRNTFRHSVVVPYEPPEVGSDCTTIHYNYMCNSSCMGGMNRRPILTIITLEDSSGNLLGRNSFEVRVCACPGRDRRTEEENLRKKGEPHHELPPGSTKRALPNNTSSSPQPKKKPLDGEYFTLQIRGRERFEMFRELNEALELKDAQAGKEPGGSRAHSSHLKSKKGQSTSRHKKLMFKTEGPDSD

| Sequence | activation of p53 (p21 promoter driven luciferase activity) [1] | p53 activation and stabilization within the nucleus (p53) | phosphorylation of peptide by extract of staurosporine-treated cells [2] | phosphorylation of peptide by whole cell extract [2] | increased γ-P32 ATP incorporation in comparison to mutant counterpart (SM) ([2]; whole cell extract from untreated 293 cells) |
| --- | --- | --- | --- | --- | --- |
| YGRKKRRQRRRTAWRRKQRGQSLAVKSFSRRTPSASSYSASETM [PS348A, point mutant of P44, serine 348 replaced by alanine] | No significant alteration | p53 stabilization was observed | failed to phosphorylate | – | – |
| YGRKKRRQRRRTAWRRKQRGQSLAVKSFSRRTPSSASYSASETM [PS349A, point mutant of P44, serine 349 replaced by alanine] | No significant alteration | p53 stabilization was observed | failed to phosphorylate | – | – |
| YGRKKRRQRRRTAWRRKQRGQSLAVKSFSRRTPSSSAYSASETM [PS350A, point mutant of P44, serine 350 replaced by alanine] | No significant alteration | p53 stabilization was observed | failed to phosphorylate | – | – |
| YGRKKRRQRRRTAWRRKQRGQSLAVKSFSRRTPASSSYSASETM [PS347A, point mutant of P44, serine 347 replaced by alanine] | complete loss | almost negligible expression of p53 within the nucleus | no difference | abolished | – |
| YGRKKRRQRRRTAWRRKQRGQSLAVKSFSRRTPAAAAYSASETM [SM, P44 mutant where serine residues from 347-350 were replaced by alanines] | complete loss | almost negligible expression of p53 within the nucleus | no difference | not and further reduction in its phosphorylation compared to PS347A peptide | – |
| YGRKKRRQRRRTAWRRKQRGQSLAVKSFSRRTPSSSSYSASETM [P44, 33 mer SMAR1 peptide (residues 324-357) conjugated with 11-mer TAT-PTD] | 2 fold | activate and stabilize p53 within the nucleus | failed to phosphorylate | gets phosphorylated | 6 to 7 fold |
